# Source: patent US6380178B1, “Cyclic regimens using cyclocarbamate and cyclic amide derivatives” (American Home Products Corporation, priority 1999, dated 2002)
row,melting point [°C],SMILES
1,149 to 150,"CC1(C)OC(=O)Nc2sc(-c3cccc(Cl)c3)cc21 [Example 1, 6-(3-chlorophenyl)-1,4-dihydro-4,4-dimethyl-2H-thieno[2,3-d][1,3]oxazine-2-one]"
2,123 to 125,"CC1(C)OC(=O)Nc2cc(-c3cccc(Cl)c3)sc21 [Example 2, 6-(3-chlorophenyl)-1,4-dihydro-4,4-dimethyl-2H-thieno[3,2-d][1,3]oxazine-2-one]"
